“Also recorded” adds a separate entry of the source.
Tests used:
RIF-1 cell-line = assay: Standard syngeneic mouse fibrosarcoma model, tumor growth delay; type: in vivo; details: 10 mg/kg, single IP injection, RIF-1 in C3H mice; for Tumor Delay: vs untreated
[1] = test system: H1975 (TKI-resistant) human lung adenocarcinoma xenograft tumors; assay: H1975 NSCLC xenograft tumor model in female Rag2 mice
Description: (§1) Rag2 mice bearing subcutaneous human lung adenocarcinoma xenograft tumors of either TKI-resistant (H1975) or TKI-sensitive (A549) origin were treated.
(§2) Two human NSCLC cell lines, A549 (TKI-sensitive) and H1975 (TKI-resistant), were used as xenograft tumor models in female Rag2 mice. The mice were 6 to 8 weeks of age and weighed 18-23 grams. 10 mice were used per group.
Rag2 mice bearing subcutaneous human lung adenocarcinoma xenograft tumors of either TKI-sensitive (A549) or TKI-resistant (H1975) origin were treated. […] Saline was used as control treatment. Disease progression was evaluated by tumor volume, clinical observations and body weight measurements. Blood samples were analyzed for CBC/differential analyses to assess myelosuppression or other changes in blood chemistry.
Cell number for inoculation was 5×10^6 cells for A549 cells in an injection volume of 50 μL per animal. For H1975 cells, cell number for inoculation was 2×10^6 cells in an injection volume of 50 μL per animal.
Treatment was initiated at average tumor volume of 100-150 mm^3.
Tumor growth delay (TGD) was calculated according to Equation (2): TGD=DTtx−DTcontrol (2).
For these calculations, TV is tumor volume, tx is treatment, int is initial, DT is doubling time for mean tumor volume from 200 mm^3 to 400 mm^3 for A549 or from 300 mm^3 to 600 mm^3 for H1975. MTV is mean tumor volume in mm^3 and TCR is tumor control ratio.
Disease progression was evaluated by tumor volume, clinical observations and body weight measurements.

[2] = test system: A549 (TKI-sensitive) human lung adenocarcinoma xenograft tumors; assay: A549 NSCLC xenograft tumor model in female Rag2 mice; details: for MTV at Day 68 / Median survival / TCR at Day 68 / TGD / TGI (%): W, F × 3; for MTV at Day 68 / Median survival / TCR at Day 68 / TGD / TGI (%) / number of animals remaining on study on day 70 / day on which a mean tumor volume of 200 mm^3 was observed / day on which a mean tumor volume of 400 mm^3 was reached / doubling time: A549 model; for TCR at Day 68: tumor control ratio; for TGD: tumor growth delay vs untreated control, doubling time 200 to 400 mm^3; for TGI (%): tumor growth inhibition; for day on which a mean tumor volume of 200 mm^3 was observed / day on which a mean tumor volume of 400 mm^3 was reached: days post-inoculation; for doubling time: mean tumor volume 200 to 400 mm^3
Description: as §1, §2
Cisplatin was used in normal saline at a dose of 5 mg/kg. Administration was intravenous.
Administration was intraperitoneal.
Treatment was initiated at a tumor volume of 100 mm^3 to 150 mm^3.
The cells were started from a frozen vial of lab stock that were frozen down from the ATCC original vial and kept in liquid nitrogen. Cell cultures with a passage number of 3 to 10 and a confluence of 80%-90% were used. […] Cells were subcultured once weekly with a split ratio 1:3 to 1:8 and expanded.
For cell preparation and harvesting for subcutaneous (s.c.) inoculation, the cells were rinsed briefly once with Hanks Balanced Salt Solution without calcium or magnesium. […] The cells were allowed to sit at 37° C. for a few minutes. The cells were observed under an inverted microscope until the cell layer was dispersed, fresh medium was added, 50 μL of cell suspension was taken and mixed with trypan blue (1:1), and the cells were counted and cell viability assessed by using Cellometer Auto T4. The cells were centrifuged at 200×g for 7 minutes and the supernatant was aspirated. The cells were resuspended in growth medium to obtain a concentration of 100×10^6 cells/mL. For inoculation, 5×10^6 cells were used in an injection volume of 50 μL per mouse in 1:1 Matrigel.
On day 0, tumor cells were implanted subcutaneously into mice in a volume of 50 μL in Matrigel using a 28-gauge needle; injection of the tumor cells was in the back of the mice. Mice were randomly assigned to groups based on tumor volume.
For administration, 5 mL of 0.9% sodium chloride for injection, USP (saline) was added to yield a DAG solution with a concentration of 8 mg/mL.
Mice were injected with the required volume to administer the prescribed dose (mg/kg) to the animals based on individual mouse weights using a 28-gauge needle. The injection volume was 200 μL for a 20-g mouse. The mice were briefly (less than 30 seconds) restrained during intravenous injections. Dilation of the vein for intravenous injections was achieved by holding the animals under a heat lamp for a period of between 1-2 minutes.
Mice were individually weighed and injected intraperitoneally according to body weight at the specified injection concentration (see Table 1). The injection volume was based on 200 μL per 20-g mouse. The abdominal surface was wiped down with 70% isopropyl alcohol to clean the injection site.
Tumor growth was monitored by measuring tumor dimensions with calipers beginning on the first day of treatment. Tumor length and width measurements were obtained each Monday, Wednesday, and Friday. Tumor volumes were calculated according to the equation L×W^2/2 with the length (in mm) being defined as the longer axis of the tumor. Animals were weighed at the time of tumor measurement. Tumors were allowed to grow to a maximum of 800 mm^3 before termination.
All animals had blood collected by cardiac puncture at termination for CBC (complete blood count) with differentiation.
In particular, signs of ill-health were based on body weight loss, change in appetite, and behavioral signs such as altered gait, lethargy, and gross manifestations of stress.

[3] = test system: NSCLC cell lines other than H460; assay: Cytotoxicity in NSCLC tumor models, range over the cell lines other than H460; type: cell-based, human; details: NSCLC cell lines other than H460, single agents
[4] = Stability of reconstituted dianhydrogalactitol stock solution; type: physicochemical; details: 8 mg/mL in 0.9% sodium chloride for injection
[5] = 4 mg/kg i.p., stopped after 6 doses
[6] = group 5, 6 mg/kg i.p., only 3 of 9 scheduled doses

dianhydrogalactitol
Days to 4 × Median Tumor Size (RIF-1 cell-line): 11.45 days | Tumor Delay (RIF-1 cell-line): 5.16 days | Tumor Delay (RIF-1 cell-line; listed as dianhydrogalactitol): 5.6 days | MTV at Day 31 ([1]; 2 mg/kg i.p. M, W, F × 3): 396 mm^3 | Median survival ([1]; 2 mg/kg i.p. M, W, F × 3): 31 days | TCR at Day 31 ([1]; 2 mg/kg i.p. M, W, F × 3, tumor control ratio): 0.87 | MTV at Day 31 ([1]; 3 mg/kg i.p. M, W, F × 3): 383 mm^3 | Median survival ([1]; 3 mg/kg i.p. M, W, F × 3): 31 days | TCR at Day 31 ([1]; 3 mg/kg i.p. M, W, F × 3, tumor control ratio): 0.84 | body weight ([1]; 4 mg/kg i.p. (group 5), treatment stopped after 6 doses, mice then quickly recovered): significant body weight loss | MTV at Day 31 [1, 5]: 262 mm^3 | Median survival [1, 5]: 41 days | TCR at Day 31 ([1]; 4 mg/kg i.p., stopped after 6 doses, tumor control ratio): 0.57 | MTV at Day 68 ([2]; 1.5 mg/kg i.p. M): 440 mm^3 | Median survival ([2]; 1.5 mg/kg i.p. M): 73.5 days | TCR at Day 68 ([2]; 1.5 mg/kg i.p. M): 0.69 | TGD ([2]; 1.5 mg/kg i.p. M): 9 days | TGI (%) ([2]; 1.5 mg/kg i.p. M): 32% | MTV at Day 68 ([2]; 3 mg/kg i.p. M): 303 mm^3 | Median survival ([2]; 3 mg/kg i.p. M): 82 days | TCR at Day 68 ([2]; 3 mg/kg i.p. M): 0.47 | TGD ([2]; 3 mg/kg i.p. M): 26 days | TGI (%) ([2]; 3 mg/kg i.p. M): 55% | body weight / tolerability of the dosage ([2]; 6 mg/kg i.p., treatment stopped after 3 doses, A549 tumor-bearing Rag2 mice): significant body weight loss; also recorded: significant weight loss and morbidity | number of animals remaining on study on day 70 ([2]; group 3, 1.5 mg/kg i.p. Monday, Wednesday, Friday for 3 weeks): 7/10 | day on which a mean tumor volume of 200 mm^3 was observed ([2]; group 3, 1.5 mg/kg i.p.): 45 days | day on which a mean tumor volume of 400 mm^3 was reached ([2]; group 3, 1.5 mg/kg i.p.): 67 days | doubling time ([2]; group 3, 1.5 mg/kg i.p.): 22 | number of animals remaining on study on day 70 ([2]; group 4, 3 mg/kg i.p. Monday, Wednesday, Friday for 3 weeks): 6/10 | day on which a mean tumor volume of 200 mm^3 was observed ([2]; group 4, 3 mg/kg i.p.): 42 days | day on which a mean tumor volume of 400 mm^3 was reached ([2]; group 4, 3 mg/kg i.p.): 81 days | doubling time ([2]; group 4, 3 mg/kg i.p.): 39 | number of animals remaining on study on day 70 [2, 6]: 8/10 | day on which a mean tumor volume of 200 mm^3 was observed [2, 6]: 54 days | hemoglobin (g/L), CBC analysis at termination, versus untreated control ([2]; groups 4 or 5 (3 or 6 mg/kg i.p.), A549 tumor-bearing Rag2 mice): Statistical significance (p<0.05) | IC50 [3]: 0.9 to 6.1 µM | time for which the stock solution was stable ([4]; 4° C.): 24 h | time for which the stock solution was stable ([4]; room temperature): 4 h

Source: patent publication US11541027B2 (DelMar Pharmaceuticals, Inc., priority 2014, dated 2023)
